Test results taken from ChEMBL document CHEMBL1201862, “PubChem BioAssay data set” (2004).
Active and inactive are the calls of the source.

Experiments:
Large T antigen = Large T antigen (Simian virus 40, UniProt P03070); type: functional, Betapolyomavirus macacae;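 also: Confirmatory-stage PubChem screen for compounds that inhibit SV40 T antigen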
[1] = THP-1 cell cytotoxicity, dose response, cytotoxicity control for Vif-APOBEC3G degradation inhibitor project, THP-1 cells (AID 1117359); type: functional; settings: Human immunodeficiency virus 1, THP-1
[2] = target: Eukaryotic translation initiation factor 4E (Mus musculus, UniProt P63073); test: eIF4E–eIF4G protein interaction inhibitors, dose response, biochemical, TR-FRET (AID 855); type: functional;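 also: potency for disrupting eIF4E binding to eIF4GI seen as loss of FRET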
[3] = THP-1 cell cytotoxicity, dose response, cytotoxicity control for non-replicating M. tuberculosis project (AID 489025); type: functional
cells = type: functional
[4] = target: Induced myeloid leukemia cell differentiation protein Mcl-1 (Homo sapiens, UniProt Q07820); type: functional
Prothrombin = Prothrombin (Homo sapiens, UniProt P00734); test: Thrombin 1536 HTS Dose Response Confirmation. [Related pubchem assays: 1046 (Thrombin 1536 HTS; hits were confirmed in this assay)]; type: functional
[5] = target: FAD-linked sulfhydryl oxidase ALR (Homo sapiens, UniProt P55789); test: inhibitors of human ALR sulfhydryl oxidase, dose response, biochemical, H2O2 detection, luminescence, cherry-pick (AID 493248)
Leucine aminopeptidase = target: T1, Leucine aminopeptidase (Plasmodium falciparum 3D7, UniProt Q8IL11); test: P. falciparum M17LAP inhibitors, primary screen, biochemical, fluorogenic H-Leu-NHMec substrate, 1536-well (AID 1619); type: functional
T1 sequence (Q8IL11 whole entry): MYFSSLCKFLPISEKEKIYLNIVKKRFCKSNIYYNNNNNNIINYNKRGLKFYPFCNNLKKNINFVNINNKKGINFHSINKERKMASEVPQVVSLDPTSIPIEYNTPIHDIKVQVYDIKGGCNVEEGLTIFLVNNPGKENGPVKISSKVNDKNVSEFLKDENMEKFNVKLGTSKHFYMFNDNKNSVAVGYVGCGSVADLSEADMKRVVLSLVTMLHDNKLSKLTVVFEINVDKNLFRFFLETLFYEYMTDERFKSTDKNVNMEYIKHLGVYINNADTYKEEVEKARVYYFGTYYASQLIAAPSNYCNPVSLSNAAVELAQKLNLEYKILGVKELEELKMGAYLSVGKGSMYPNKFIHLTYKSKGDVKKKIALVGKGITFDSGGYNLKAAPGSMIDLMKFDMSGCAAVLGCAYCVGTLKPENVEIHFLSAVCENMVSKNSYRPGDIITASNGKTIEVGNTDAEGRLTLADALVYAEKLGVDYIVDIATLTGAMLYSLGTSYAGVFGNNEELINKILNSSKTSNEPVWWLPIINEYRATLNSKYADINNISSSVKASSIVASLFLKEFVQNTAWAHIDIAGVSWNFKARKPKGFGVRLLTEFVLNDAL

[6] = target: T2, Histone-lysine N-methyltransferase NSD2 (Homo sapiens, UniProt O96028); type: biochemical
T2 sequence (O96028 whole entry): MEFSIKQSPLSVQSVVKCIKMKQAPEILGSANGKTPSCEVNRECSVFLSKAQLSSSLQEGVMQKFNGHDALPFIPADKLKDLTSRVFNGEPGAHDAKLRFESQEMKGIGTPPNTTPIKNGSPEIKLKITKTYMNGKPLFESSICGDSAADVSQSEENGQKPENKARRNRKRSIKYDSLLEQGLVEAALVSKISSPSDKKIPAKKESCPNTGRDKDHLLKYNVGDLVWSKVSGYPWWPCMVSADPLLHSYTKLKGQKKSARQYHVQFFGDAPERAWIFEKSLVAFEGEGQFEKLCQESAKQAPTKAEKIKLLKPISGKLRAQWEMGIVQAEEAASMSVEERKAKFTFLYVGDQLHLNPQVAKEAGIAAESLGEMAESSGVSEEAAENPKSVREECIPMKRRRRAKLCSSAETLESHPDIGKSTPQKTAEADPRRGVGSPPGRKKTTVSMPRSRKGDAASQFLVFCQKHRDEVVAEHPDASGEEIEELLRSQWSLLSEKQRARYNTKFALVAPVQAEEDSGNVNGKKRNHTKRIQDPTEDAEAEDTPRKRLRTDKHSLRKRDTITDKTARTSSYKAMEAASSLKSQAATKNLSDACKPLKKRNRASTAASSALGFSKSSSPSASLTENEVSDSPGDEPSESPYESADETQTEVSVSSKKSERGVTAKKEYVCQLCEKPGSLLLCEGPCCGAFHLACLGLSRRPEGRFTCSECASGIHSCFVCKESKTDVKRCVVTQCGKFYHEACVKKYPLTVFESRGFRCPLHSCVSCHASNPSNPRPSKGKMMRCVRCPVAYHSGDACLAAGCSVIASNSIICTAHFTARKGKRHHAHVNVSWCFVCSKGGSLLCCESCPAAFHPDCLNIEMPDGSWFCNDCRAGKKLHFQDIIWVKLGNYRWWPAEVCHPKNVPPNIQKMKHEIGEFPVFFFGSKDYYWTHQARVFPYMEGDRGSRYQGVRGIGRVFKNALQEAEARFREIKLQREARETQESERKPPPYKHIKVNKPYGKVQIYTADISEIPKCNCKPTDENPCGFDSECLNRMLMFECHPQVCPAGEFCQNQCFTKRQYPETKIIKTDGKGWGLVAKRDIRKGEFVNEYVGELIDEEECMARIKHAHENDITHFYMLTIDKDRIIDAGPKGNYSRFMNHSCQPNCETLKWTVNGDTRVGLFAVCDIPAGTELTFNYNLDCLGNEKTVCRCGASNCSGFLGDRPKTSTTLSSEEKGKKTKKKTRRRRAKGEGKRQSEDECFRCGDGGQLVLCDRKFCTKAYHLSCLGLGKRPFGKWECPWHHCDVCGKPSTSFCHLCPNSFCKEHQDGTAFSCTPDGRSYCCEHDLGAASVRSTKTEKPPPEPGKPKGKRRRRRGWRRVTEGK

[7] = cytotoxicity in HEK-293T cells, dose response, cytotoxicity control for TCR NF-kB inhibitor project, luminescence, T-cell screen hits (AID 489026); type: functional, cell-based;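 also: cells exposed to compound about 14 hours before the viability readout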
H4 = test: Luminescence Cell-Based Dose Response HTS to Identify Activators of 5'UTR Stem-Loop Driven Prion Protein mRNA Translation in H4 Neuroglioblastoma Cells. [Related pubchem assays: 1829 (Project Summary), 1814 (Primary HTS)]; type: functional; settings: Homo sapiens
[8] = Luminescence Cell-Based Dose Response HTS to Identify Activators of Luciferase Translation or Activity in H4 […] Cells. [Related pubchem assays: 1829 (Project Summary), 1814 (Primary HTS)]; type: functional
[9] = target: Peroxisome proliferator-activated receptor gamma/Nuclear receptor coactivator 2 (Homo sapiens, UniProt P37231); test: (§1) TR-FRET dose response biochemical High Throughput Screening assay for agonists of the steroid receptor coactivator 2 (SRC-2) recruitment by the peroxisome proliferator-activated receptor gamma (PPAR gamma): non-selective agonists. [Related pubchem assays: 1297, 1032 ]; type: functional
[10] = target: Peroxisome proliferator-activated receptor gamma/Nuclear receptor coactivator 1 (Homo sapiens, UniProt P37231); test: as §1, with “1 (SRC-1)” for “2 (SRC-2)”, “assays (depositor defined):AID1300, AID1808, AID504735, AID631]” for “assays: 1297, 1032 ]”; type: protein assay
[11] = target: Peroxisome proliferator-activated receptor gamma/Nuclear receptor coactivator 3 (Homo sapiens, UniProt P37231); test: as §1, with “3 (SRC-3)” for “2 (SRC-2)”, “1301 (Confirmation screen.), 1048 (Primary screen.)]” for “1297, 1032 ]”; type: functional
Sequence of Peroxisome proliferator-activated receptor gamma/Nuclear receptor coactivator 3 (P37231 whole entry): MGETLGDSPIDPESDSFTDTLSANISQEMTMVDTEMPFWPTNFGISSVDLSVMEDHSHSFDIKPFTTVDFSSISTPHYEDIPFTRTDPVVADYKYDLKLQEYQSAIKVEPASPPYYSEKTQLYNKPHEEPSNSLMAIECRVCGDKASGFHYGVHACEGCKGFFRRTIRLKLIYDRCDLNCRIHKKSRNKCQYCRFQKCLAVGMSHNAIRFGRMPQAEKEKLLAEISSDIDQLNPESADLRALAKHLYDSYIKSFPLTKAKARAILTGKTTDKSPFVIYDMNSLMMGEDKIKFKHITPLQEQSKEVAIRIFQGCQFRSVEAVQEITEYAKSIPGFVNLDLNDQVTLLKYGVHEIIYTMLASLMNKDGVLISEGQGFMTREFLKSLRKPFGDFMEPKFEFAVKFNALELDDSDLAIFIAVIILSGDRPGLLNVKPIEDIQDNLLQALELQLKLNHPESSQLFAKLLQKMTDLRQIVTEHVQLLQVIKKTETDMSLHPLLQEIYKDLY
Sequence of Peroxisome proliferator-activated receptor gamma/Nuclear receptor coactivator 3 (Q9Y6Q9 whole entry, further chain): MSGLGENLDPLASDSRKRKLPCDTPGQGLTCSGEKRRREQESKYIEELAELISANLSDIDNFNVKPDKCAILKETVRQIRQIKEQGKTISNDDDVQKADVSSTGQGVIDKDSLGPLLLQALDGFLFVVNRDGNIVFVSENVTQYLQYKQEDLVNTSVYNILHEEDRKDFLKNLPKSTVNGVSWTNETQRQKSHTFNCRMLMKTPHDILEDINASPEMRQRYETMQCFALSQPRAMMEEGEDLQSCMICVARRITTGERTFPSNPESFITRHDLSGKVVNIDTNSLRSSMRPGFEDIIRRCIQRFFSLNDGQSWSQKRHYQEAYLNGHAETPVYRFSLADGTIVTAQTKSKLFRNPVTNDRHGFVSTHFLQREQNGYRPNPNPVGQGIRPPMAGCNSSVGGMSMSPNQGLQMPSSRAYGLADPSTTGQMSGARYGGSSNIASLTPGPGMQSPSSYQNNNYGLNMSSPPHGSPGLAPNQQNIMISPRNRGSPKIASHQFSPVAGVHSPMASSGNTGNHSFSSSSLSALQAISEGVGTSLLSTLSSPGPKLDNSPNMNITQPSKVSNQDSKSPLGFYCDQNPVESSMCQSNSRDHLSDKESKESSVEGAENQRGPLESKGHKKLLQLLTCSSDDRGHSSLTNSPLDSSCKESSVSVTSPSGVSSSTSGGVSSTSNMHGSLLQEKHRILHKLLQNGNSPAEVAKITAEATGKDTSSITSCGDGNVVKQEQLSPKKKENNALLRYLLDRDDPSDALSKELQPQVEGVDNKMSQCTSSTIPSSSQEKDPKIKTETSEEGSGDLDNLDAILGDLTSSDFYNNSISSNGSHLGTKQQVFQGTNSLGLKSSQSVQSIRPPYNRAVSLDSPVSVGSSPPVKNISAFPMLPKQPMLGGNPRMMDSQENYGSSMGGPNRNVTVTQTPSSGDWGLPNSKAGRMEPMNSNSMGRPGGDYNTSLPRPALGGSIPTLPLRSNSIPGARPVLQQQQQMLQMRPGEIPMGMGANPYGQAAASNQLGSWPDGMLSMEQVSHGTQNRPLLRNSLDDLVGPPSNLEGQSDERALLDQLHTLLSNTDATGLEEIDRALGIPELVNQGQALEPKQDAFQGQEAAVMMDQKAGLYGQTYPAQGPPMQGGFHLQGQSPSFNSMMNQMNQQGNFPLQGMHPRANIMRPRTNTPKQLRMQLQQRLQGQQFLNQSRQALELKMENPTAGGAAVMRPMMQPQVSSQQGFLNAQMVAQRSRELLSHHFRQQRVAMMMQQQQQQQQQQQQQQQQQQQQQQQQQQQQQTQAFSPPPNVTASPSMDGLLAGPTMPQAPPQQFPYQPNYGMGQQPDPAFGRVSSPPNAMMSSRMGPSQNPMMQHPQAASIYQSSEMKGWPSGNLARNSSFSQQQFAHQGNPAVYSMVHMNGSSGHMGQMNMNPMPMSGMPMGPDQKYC

Sequence of Eukaryotic translation initiation factor 4E (P63073 whole entry): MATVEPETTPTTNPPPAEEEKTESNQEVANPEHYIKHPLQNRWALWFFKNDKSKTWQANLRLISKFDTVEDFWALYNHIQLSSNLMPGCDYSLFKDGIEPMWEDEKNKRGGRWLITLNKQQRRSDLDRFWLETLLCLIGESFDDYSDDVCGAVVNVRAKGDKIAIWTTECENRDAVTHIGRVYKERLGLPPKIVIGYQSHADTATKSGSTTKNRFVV
Sequence of Induced myeloid leukemia cell differentiation protein Mcl-1 (Q07820 whole entry): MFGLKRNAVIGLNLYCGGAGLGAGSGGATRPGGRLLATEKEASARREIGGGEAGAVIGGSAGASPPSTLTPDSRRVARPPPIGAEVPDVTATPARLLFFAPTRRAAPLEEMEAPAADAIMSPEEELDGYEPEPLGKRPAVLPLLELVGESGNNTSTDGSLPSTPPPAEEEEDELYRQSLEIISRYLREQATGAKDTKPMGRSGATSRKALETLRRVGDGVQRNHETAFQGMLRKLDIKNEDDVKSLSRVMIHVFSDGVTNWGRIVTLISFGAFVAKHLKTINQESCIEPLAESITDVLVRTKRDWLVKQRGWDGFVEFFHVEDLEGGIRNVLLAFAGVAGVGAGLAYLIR
Sequence of FAD-linked sulfhydryl oxidase ALR (P55789 whole entry): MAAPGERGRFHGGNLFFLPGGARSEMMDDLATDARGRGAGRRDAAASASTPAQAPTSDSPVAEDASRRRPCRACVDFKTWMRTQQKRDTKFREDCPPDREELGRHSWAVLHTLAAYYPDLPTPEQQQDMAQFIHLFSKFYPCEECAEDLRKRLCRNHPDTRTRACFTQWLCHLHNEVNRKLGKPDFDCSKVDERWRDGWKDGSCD
Sequence of Peroxisome proliferator-activated receptor gamma/Nuclear receptor coactivator 2 (P37231 whole entry): as the sequence (P37231 whole entry) above
Sequence of Peroxisome proliferator-activated receptor gamma/Nuclear receptor coactivator 2 (Q15596 whole entry, further chain): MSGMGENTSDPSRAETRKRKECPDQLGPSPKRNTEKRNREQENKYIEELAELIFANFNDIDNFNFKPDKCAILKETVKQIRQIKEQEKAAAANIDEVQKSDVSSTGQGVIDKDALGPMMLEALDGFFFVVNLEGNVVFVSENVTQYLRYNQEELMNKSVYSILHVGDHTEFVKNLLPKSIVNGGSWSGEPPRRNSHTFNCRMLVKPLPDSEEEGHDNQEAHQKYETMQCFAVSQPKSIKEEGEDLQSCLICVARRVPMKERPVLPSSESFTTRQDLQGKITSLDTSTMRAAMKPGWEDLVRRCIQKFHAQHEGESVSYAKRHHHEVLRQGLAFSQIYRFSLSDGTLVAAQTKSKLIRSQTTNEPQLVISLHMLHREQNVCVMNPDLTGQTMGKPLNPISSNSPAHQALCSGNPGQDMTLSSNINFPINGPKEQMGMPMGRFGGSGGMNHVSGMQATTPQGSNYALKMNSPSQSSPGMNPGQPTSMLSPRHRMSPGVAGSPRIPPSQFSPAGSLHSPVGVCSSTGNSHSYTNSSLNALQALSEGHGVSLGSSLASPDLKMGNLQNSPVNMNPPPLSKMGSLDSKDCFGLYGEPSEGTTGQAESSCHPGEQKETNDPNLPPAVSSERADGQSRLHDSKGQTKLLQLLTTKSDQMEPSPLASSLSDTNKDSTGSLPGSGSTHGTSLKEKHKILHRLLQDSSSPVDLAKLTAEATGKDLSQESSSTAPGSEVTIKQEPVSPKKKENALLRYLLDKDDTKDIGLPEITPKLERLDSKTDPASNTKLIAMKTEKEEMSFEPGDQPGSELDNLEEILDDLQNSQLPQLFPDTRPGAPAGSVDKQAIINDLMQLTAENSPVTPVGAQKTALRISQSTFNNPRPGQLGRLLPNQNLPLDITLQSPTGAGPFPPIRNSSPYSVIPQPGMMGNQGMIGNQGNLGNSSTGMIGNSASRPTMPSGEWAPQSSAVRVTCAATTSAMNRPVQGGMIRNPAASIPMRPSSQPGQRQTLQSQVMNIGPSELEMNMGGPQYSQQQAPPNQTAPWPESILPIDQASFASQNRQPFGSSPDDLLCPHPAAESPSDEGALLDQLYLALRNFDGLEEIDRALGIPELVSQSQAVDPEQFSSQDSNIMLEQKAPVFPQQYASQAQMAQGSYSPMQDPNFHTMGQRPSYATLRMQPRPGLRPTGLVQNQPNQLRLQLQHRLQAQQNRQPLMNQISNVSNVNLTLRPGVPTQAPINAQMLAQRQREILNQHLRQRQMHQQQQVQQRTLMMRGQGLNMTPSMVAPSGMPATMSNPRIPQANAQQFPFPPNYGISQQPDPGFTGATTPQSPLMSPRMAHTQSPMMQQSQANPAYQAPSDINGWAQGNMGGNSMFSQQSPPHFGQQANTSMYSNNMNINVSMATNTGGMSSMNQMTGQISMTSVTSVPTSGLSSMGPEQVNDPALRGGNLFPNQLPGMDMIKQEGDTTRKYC

## COc1ccc2c(c1OC)C(=O)N(c1ccc(O)cc1)C2
Large T antigen
  IC50: > 100 µM (active)

## CC(C(=O)NCC1CCCCC1)N(C)Cc1ccc(Br)cc1 (centres undefined)
[1]
  CC50: > 40 µM (active)

## Cc1ccc(CN(Cc2ccccc2)C(S)=NCC(=O)N2CCC3(CC2)OCCO3)o1
[2]
  IC50: 50 µM (inactive)

## c1ccc(CNCCC(Cc2ccccc2)c2ccco2)cc1 (centres undefined)
[3]
  CC50: > 40 µM (active)
cells
  IC50: > 50 µM (active)

## N#Cc1cc(-c2ccccc2)nn1-c1ccccc1
[2]
  IC50: > 64 µM (inactive)
[4]
  IC50: 1.44 µM (active)

## O=C(Cn1nc(C(F)F)cc1C(F)F)NNC(=S)Nc1ccc(F)cc1
Prothrombin
  IC50: > 50 µM (not active)

## CCN(CC)S(=O)(=O)c1ccc2c(c1)c(=O)c(C(=O)NCc1ccc3c(c1)OCO3)cn2C
Prothrombin
  IC50: 0.852 µM (active)

## COc1ccccc1-c1nnc2n1N=C(c1ccc(O)c(O)c1)CS2
[5]
  AC50: 1.97 µM (active)
Leucine aminopeptidase
  IC50: 39.2 µM (active)
[6]
  AC50: 12.4 µM (active)
[7]
  IC50: > 80 µM (inactive)

## CCCCn1nnc(N(C(=O)c2cccs2)C(=O)c2cccs2)n1
H4
  EC50: > 120 µM (not active)
Prothrombin
  IC50: 0.88 µM (active)
[8]
  EC50: 12.6 µM (active)

## CCCCN(CC)C(=O)CSc1cc(=O)n(C)c2ccccc12
[9]
  EC50: > 79.4 µM (not active)
[10]
  EC50: > 79.4 µM (inactive)
[11]
  EC50: > 79.4 µM (not active)
